From the pKa sets of Baltruschat and Czodrowski (2020)

Settings: acidic group

pKa	SMILES
5.15	O=S(=O)(Cc1ccccc1)c1cnn[nH]1
3.7	CC(C(=O)O)C(C#N)c1ccccc1 (stereo not given)
8.67	O=S(=O)(Cc1ccccc1)c1ncc[nH]1
2.68	O=C(O)c1ccc([N+](=O)[O-])s1
9.02	C[n+]1ccc(C(=O)Cc2ccccc2)cc1
4.5	COCC1=C(C(=O)O)CCC1
13.5	NC(=O)c1cccnc1
2.15	O=C(O)c1cc([N+](=O)[O-])ccc1O
7.44	CC(=O)C(=NO)C(C)=O
10.3	COC(=O)c1ccccc1O
2.4	[NH3+][C@@H](Cc1c[nH]c[nH+]1)C(=O)NCC(=O)O
5.8	CC/C(N=O)=N/O
12	COc1cc(S(C)=O)ccc1-c1nc2[nH]ncc2[nH]1 (stereo not given)
6.17	Nc1ccc(S(=O)(=O)Nc2ccncn2)cc1
10.8	O/N=C/c1ccccc1
2.69	NC(=[NH2+])NOCC(=O)O
4.83	CC1(C)[C@@H]2CC[C@](C(=O)O)(C2)[C@@H]1O
8.8	O=C(Cc1ccccc1)c1cc[n+](Cc2ccccc2)cc1
5.79	CC(=O)C(C)C(C)(C)C(=O)O (stereo not given)
13.1	OC(c1ccccc1)(c1ccncc1)c1ccncc1
5.85	Nc1ccc(S(=O)(=O)Nc2nccs2)cc1/N=N/c1ccccc1
3.8	C[N+](C)(C)CC(O)CC(=O)O (stereo not given)
9.64	C[N+](C)(C)CCCc1cccc(O)c1

pKa	SMILES
6	Cn1c(=O)c2c([nH]c(=O)n2C)n(C)c1=O
6.37	CCCC1(CCC)SC(=O)NC1=O
3.99	O=C(O)c1ccc(Br)cc1
9.7	Nc1nc2nc[nH]c2c(N)[n+]1[O-]
7.22	Cc1cc([N+](=O)[O-])cc(C)c1O
8.8	CC1=CC(=O)C(C(C)C)=C/C1=N/c1ccc(O)cc1
8.94	COc1cc(S(C)=O)ccc1-c1nc2nccnc2[nH]1 (stereo not given)
6.08	CC(=O)Nc1ccc(S)cc1
3.9	CN(C)c1cc[n+](O)cc1
10.8	Cc1cc(C)c(C(C)C)cc1O
8.4	O=C1C=CC(=O)/C(=N/O)N1
9.39	Nc1nc2nc[nH]c2c([O-])[nH+]1
2.1	O=C(O)C[NH+](CCNS(=O)(=O)c1ccccc1)CC(=O)O
6.06	CCC[n+]1cccc2c(O)cccc21
10.8	NC(=S)Nc1ccc([N+](=O)[O-])cc1
1.2	Cc1cc(O)[nH+]c(O)[nH+]1
12.1	COc1ccc(C(=O)c2cc[nH]n2)cc1
2.76	O=C(O)c1nsc2ccccc12
11.3	CCC(C(C)=O)C(C)=O
9.64	Cc1ccc([P+](c2ccc(C)cc2)(c2ccc(C)cc2)C2c3ccccc3-c3ccccc32)cc1
3.14	O=C(O)c1cc([N+](=O)[O-])ccc1CO
12.7	S=C(/N=N/c1ccc2ccccc2c1)NNc1ccc2ccccc2c1
1.18	CCOc1cccc[n+]1O

pKa	SMILES
3.86	O=C(O)CCBr
6.88	N#Cc1ncnc2nc[nH]c12
4.51	O=S(=O)(O)c1ccc(O)cc1
9.5	c1ccc(CSc2ncn[nH]2)cc1
0.77	Sc1cc[nH+]c2ccccc12
5.03	CCC(C)(C)C(=O)O
8.52	O=[N+]([O-])c1ccccc1B(O)O
11.1	O/C(=C\c1ccccn1)c1ccccc1
4.9	O=C1C(O)=C(Cc2ccccc2)C(=O)c2ccccc21
4.06	COc1cccc(C(=O)O)c1
10.9	CCc1cc(C(C)C)c(O)cc1C
7.74	C/C(=N\O)C(=O)NO
8.6	O=C1NC(=O)/C(=C/c2ccccc2)N1
9.56	Oc1cccc(O)c1
4.13	COc1cc(C(=O)O)ccc1C
3.94	O=C(O)c1ccc(/C=C/[N+](=O)[O-])cc1
10.6	c1ccc2c(c1)[nH]c1c2cc[n+]2cc3c(cc12)CCCC3
11.5	CCSC(O)O
9.14	NNC(=O)C1(F)C(F)(F)C(F)(F)C(F)(F)C(F)(F)C1(F)F
11.2	CC1CCCC(=O)C1=O (stereo not given)
2.7	[NH3+]CCC(=O)N[C@@H](Cc1c[nH]c[nH+]1)C(=O)O
3.13	COc1c(C)cc2c(c1C(=O)O)COC2

SMILES	pKa
Cc1cc(O)ccc1[N+](=O)[O-]	7.65
NS(=O)(=O)c1ccc(P(=O)(O)O)cc1	1.42
Cc1ccccc1O	10.2
C=C(C)[C@@H]1C[NH2+][C@H](C(=O)[O-])[C@@H]1CC(=O)O	4.58
O=C(O)C[Se]c1ccccc1[N+](=O)[O-]	3.45
COc1ccc2[nH]c3c(c2c1)CCN=C3C	14.5

Same assay, conditions: basic group

pKa	SMILES
4.43	C[NH+](C)CCCNc1c([N+](=O)[O-])cnc2ccccc12
10.8	c1ccc2[nH]c(-c3ccncc3)nc2c1
10.1	Cc1cc([O-])[n+](C)c([O-])n1
5.52	Nc1ccnc2c1ncn2CCOCP(=O)([O-])O
2.39	CCn1cncn1
10.6	CCCCCCCCCCN
3.32	NC(=O)c1cccnc1
7.14	NCC[NH3+]
6.85	Cc1cc(N)nc(C)n1
3.8	COc1cc(S(C)=O)ccc1-c1nc2[nH]ncc2[nH]1 (stereo not given)

SMILES	pKa
O=C1CC[C@H]2N1CC[C@H]1c3ccccc3CCN12	4.89
